Data published in patent publication US9949976B2, “Kinase inhibitor and use thereof” (Sihuan Pharmaceutical Holdings Group Ltd., priority 2013, dated 2018).

What was measured:
[1] = system: MDA-MB-435S human melanoma cell; assay: BrdU cell proliferation assay (Cell Signaling kit); format: cell-based; details: 72 h, read-out: In vitro cell-inhibiting activity IC50 MDA-MB-435S
Protocol: (§1) Experimental method: cell proliferation assay was carried out by BrdU method (BrdU cell proliferation assay kit, Cell Signaling Technology Company).
(§2) Preparation of gradient dilution solutions of test compound: the stock solution containing 10 mM test compound was subjected to 4-fold stepwise dilution with DMSO to prepare solutions containing 2.5 mM, 625 μM, 156 μM, 39 μM, 9.8 μM, and 2.5 μM test compound, respectively. 2 μL DMSO-diluted compound was added to 198 μL culture medium containing 10% FBS to prepare […] test compound, wherein the maximum concentration of the test compound was 100 μM, the concentration of DMSO was 1%, and there were 7 concentration gradients.
MDA-MB-435S medium: L-15+10% FBS+0.01 mg/mL insulin
(§3) (1) Cells grown to 80% confluence (in exponential growth phase) were digested with pancreatin, and centrifuged to collect the cells. MDA-MB-435S and U87MG cells were re-suspended in FBS-free culture medium, counted, and seeded to a 96-well plate; MDA-MB-435S cells were seeded at 3000 cells/well/81 μL; U87MG cells were seeded at 4000 cells/well/81 MCF-7 cells were resuspended in culture medium containing 1% FBS, and counted and seeded to a 96-well plate, at 4000 cell/well/82 μL. The plates were placed in a cell incubator at 37° C. […]
(§4) (9) To each well, stop solution (100 μL) was added, and OD value at 450 nm was measured by ELISA instrument […]

[2] = system: U87MG human glioblastoma cell; assay: BrdU cell proliferation assay (Cell Signaling kit); format: cell-based; details: U-87 MG, 72 h, read-out: In vitro cell-inhibiting activity IC50 U87MG
Protocol: as §1, §2
U87MG medium: MEM+10% FBS
as §3, §4

[3] = system: Capan-1 human pancreatic cancer cell; assay: In vivo pharmacodynamics, subcutaneous Capan-1 pancreatic cancer xenograft model; design: species or system female BALB/c nude mouse; details: Capan-1 xenograft, 100 mg/kg PO QD 21 days
Protocol: Culture medium of Capan-1 pancreatic cancer cell: IMDM culture medium+10% fetal bovine serum+100 U/mL penicillin and 100 μg/mL streptomycin+2 mM glutamine.
Cells were cultured and passaged. Tumor cells in exponential growth phase were used for in vivo tumor seeding. The cells were seeded subcutaneously to right lateral thorax of female BALB/c nude mouse. When tumor grew to a volume of about 150 mm^3, the animals were grouped and administered with a drug. Compound 1 was orally administrated once a day at an amount of 100 mg/kg, for 21 days. The volume of the drug for administration is 0.1 mL/10 g according to animal's body weight.
Tumor volume was measured with vernier calipers twice a week by measuring the major diameter and the minor diameter. The tumor volume is calculated by the following formula: volume=0.5×(major diameter)×[…]. The relative tumor volume (RTV) and the proliferation ratio (T/C) were calculated according to the result of measurement. RTV=Vt/V0, wherein Vt is the average tumor volume on the t day after grouping, and V0 is the average tumor volume on the day of grouping. T/C=RTV of treatment group/RTV of solvent control group×100%.
SPSS statistical software was used for T test on the 2 groups of independent samples, and for group statistical analysis of tumor volumes. p<0.05 was regarded as having significant difference.

CDK6/D3 = CDK6/D3 (Homo sapiens, UniProt Q00534); assay: In vitro enzyme-inhibiting activity, Caliper Mobility Shift method; format: biochemical; details: read-out: CDK enzyme-inhibiting activity IC50 CDK6/D3
Chain of CDK6/D3 (Q00534 whole entry): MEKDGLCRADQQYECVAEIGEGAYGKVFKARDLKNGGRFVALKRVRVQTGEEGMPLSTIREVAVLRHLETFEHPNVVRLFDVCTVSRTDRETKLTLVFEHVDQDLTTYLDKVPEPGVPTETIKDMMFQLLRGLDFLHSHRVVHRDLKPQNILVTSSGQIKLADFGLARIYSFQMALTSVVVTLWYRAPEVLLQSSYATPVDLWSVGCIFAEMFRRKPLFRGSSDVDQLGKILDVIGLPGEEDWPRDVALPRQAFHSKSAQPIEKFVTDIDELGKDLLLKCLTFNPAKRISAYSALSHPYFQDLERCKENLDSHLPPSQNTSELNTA
Chain of CDK6/D3 (P30281 whole entry partner): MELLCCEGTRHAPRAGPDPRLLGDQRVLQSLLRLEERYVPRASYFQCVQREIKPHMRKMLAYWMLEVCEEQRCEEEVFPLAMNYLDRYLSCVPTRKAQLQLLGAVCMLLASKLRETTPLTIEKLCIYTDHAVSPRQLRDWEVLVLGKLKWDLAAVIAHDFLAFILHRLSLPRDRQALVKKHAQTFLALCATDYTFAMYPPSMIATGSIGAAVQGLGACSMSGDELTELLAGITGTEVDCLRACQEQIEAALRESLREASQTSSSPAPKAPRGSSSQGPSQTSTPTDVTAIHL
Protocol: Measurement of activity for inhibiting CDK4/6 kinase by Caliper Mobility Shift method.
50 mL stock solution containing 1000 mM HEPES (pH 7.5), and 50 μL stock solution containing 30% Brij-35, were added to 949.95 mL ultra pure water, and the resultant mixture was mixed homogeneously.
25 mL stock solution containing 4% Coating Reagent #3 (provided with the 12-sipper chip used in Caliper device), 50 mL stock solution containing 1000 mM HEPES (pH 7.5), 50 mL stock solution containing 0.5 M EDTA, and 0.25 mL stock solution containing 30% Brij-35, were added to 374.75 mL ultra pure water, and the resultant mixture was mixed homogeneously.
18 μL CDK6/D3 enzyme solution, and 14 μL stock solution containing 1M DTT were added to 2768 μL 1-fold CDK6 kinase buffer, and the resultant mixture was mixed homogeneously.
23 μL stock solution containing 100 mM ATP, 75 μL stock solution containing 1M MgCl2, and 75 μL FAM-tagged polypeptide 8, were added to 2827 μL 1-fold CDK6 kinase buffer, and the resultant mixture was mixed homogeneously.
DMSO solution containing 10 mM test compound was diluted with DMSO to a solution containing 50 μM test compound (which was used as a stock solution).
1) 5 μL 5-fold test compound solution and 10 μL 2.5-fold kinase solution were added to the corresponding wells in a 384-well plate, and incubated at room temperature for 10 min.
2) To the corresponding wells, 10 μL 2.5-fold polypeptide solution was added to start the enzymatic reaction, and incubation was performed at 28° C. for 5 h.
To the corresponding wells, 25 μL stop solution was added to stop the reaction.
The data was read by Caliper device, the inhibition rate was calculated by the following formula, and curve fitting was carried out by GraphPad5.0 software to get IC50 value. Inhibition rate=(maximal value−sample value)/(maximal value−minimal value)×100, wherein, maximal value: positive control without addition of test compound; minimal value: negative control without addition of enzyme.

[4] = system: HGC-27 gastric cancer cell; assay: BrdU cell proliferation assay (Cell Signaling kit); format: cell-based; details: Homo sapiens, HGC-27, 72 h; read-out: In vitro cell-inhibiting activity IC50 HGC-27
Protocol: as §1, §2
HGC-27 medium: DMEM+10% FBS
(1) Cells grown to 80% confluence (in exponential growth phase) were digested with pancreatin, and centrifuged to collect the cells. Cells were re-suspended in FBS-free culture medium, counted, and seeded to a 96-well plate at 4000 cells/well/81 μL. The plates were placed in a cell incubator at 37° C.
(2) After 24 h culture, 9 μL FBS was added to each well to reach a final FBS concentration of 10%. […]
(9) To each well, 100 μL stop solution was added, and OD value at 450 nm was measured by ELISA instrument 3. […]

SMILES	IC50 [1]	IC50 [2]	T/C [3]	TGI (inhibition ratio of tumor growth) [3]	Tumor volume after administration ([3]; average ± standard error)	Tumor volume before administration ([3]; average ± standard error)	IC50 (CDK6/D3)	IC50 [4]
CCN1CCN(Cc2ccc(Nc3ncc(F)c(-c4cc(F)c5nc(C)n(C(C)C)c5c4)n3)nc2)CC1 [LY2835219, reference compound]	200 nM	40 nM	–	–	–	–	–	–
CCN1CCN(Cc2cnc(Nc3cc(-c4cc(F)c5nc(C)n(C(C)C)c5c4)c(F)cn3)nc2)CC1 [Compound 1, 5-((4-ethylpiperazin-1-yl)methyl)-N-(5-fluoro-4-(4-fluoro-1-isopropyl-2-methyl-1H-benzo[d]imidazol-6-yl)pyridin-2-yl)pyrimidin-2-amine]	–	–	31.5%	68.5%	368 ± 48 mm^3	150 ± 12 mm^3	16 nM	316 nM
